Assay results taken from US8158621B2, “Methods of treating or preventing autoimmune diseases with 2,4-pyrimidinediamine compounds” (Rigel Pharmaceuticals, Inc., priority 2002, dated 2012).

How the values were obtained:
[1] = tested on: B-cell line BJAB; assay: BJAB toxicity, Cell Titer Glo assay; assay type: cell-based
Description: Seed 50 μl cells (1×10^6/ml) into each well containing 50 μl compound. The final vehicle concentration is 0.5% DMSO, 1.5% MeOH. Shake plates for 1 minute to mix cells and compound. Incubate plates at 37° C. (5% CO2) for 18 hours. Next day, harvest 50 μl cells from each well, add to 50 μl Cell Titer Glo reagent ([…]). Shake plates for 1 minute. Read on luminometer.

[2] = tested on: Jurkat cells; assay: Jurkat toxicity, Cell Titer Glo assay; assay type: cell-based, human
Description: Seed 50 μl cells (1×10^6/ml) into each well containing 50 μl compound. […] Shake plates for 1 minute to mix cells and compound. Incubate plates at 37° C. […] Next day, harvest 50 μl cells from each well, add to 50 μl Cell Titer Glo reagent ([…]). Shake plates for 1 minute. Read on luminometer.

[3] = tested on: cultured human mast cells (CHMC); assay: CHMC high cell density IgE activation: hexos; assay type: cell-based
[4] = tested on: cultured human mast cells (CHMC); assay: CHMC high cell density IgE activation: tryptase; assay type: cell-based
[5] = target: T1, Syk kinase (Homo sapiens, UniProt P43405); assay: Syk kinase biochemical fluorescence polarization assay; conditions: isolated Syk kinase, fluorescence polarization, 4 uM ATP
T1 construct: purchased Upstate, Lake Placid NY

[6] = tested on: basophil cells (human peripheral blood); assay: Basophil ionomycin activation: histamine release assay; assay type: cell-based; conditions: basophils, ionomycin activation, histamine release; read-out: Basophils Ionomycin Histamine IC50
Method in brief: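 Dextran-sedimented leukocytes from peripheral blood of dust-mite-allergic human donors were incubated with compound (8 concentrations, 0.5% DMSO, triplicate) and then stimulated with 2 μM ionomycin stock (20 μl added) for 30 min at 37° C. Histamine released into the supernatant was measured by ELISA.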

[7] = tested on: Human Jurkat T-cells (clone N); assay: Jurkat T-cell activation (anti-TCR, CD69 upregulation); assay type: cell-based
Method in brief: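 Jurkat cells in RPMI + 5% FBS preincubated with compound 1 h at 37 °C, then stimulated with anti-TCR C305 at 500 ng/ml for 20 h. CD69 surface expression stained with anti-CD69-APC and read by flow cytometry; IC50 versus solvent-only control.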

[8] = tested on: cultured human mast cells (CHMC); assay: CHMC low cell density IgE activation: LTC4 assay; assay type: cell-based; conditions: anti-IgE activation, LTC4 release
Method in brief: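 Cultured human mast cells at low density (1000-1500 per well) rested 1 h at 37° C, then stimulated with anti-IgE for 30 min at 37° C. Supernatant tryptase measured with fluorogenic substrate (30 min, room temperature); LTC4 quantified by ELISA on diluted supernatant.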

[9] = tested on: cultured human mast cells (CHMC); assay: CHMC low cell density ionomycin activation: tryptase assay; assay type: cell-based
[10] = tested on: basophil cells (human peripheral blood); assay: Basophil anti-IgE activation: histamine release assay; assay type: cell-based; conditions: basophils, anti-IgE activation, histamine release; read-out: Basophils anti-IgE Histamine IC50
Description: The basophil activation assay was carried out using whole human peripheral blood from donors allergic to dust mites with the majority of the red blood cells removed by dextran sedimentation. Human peripheral blood was mixed 1:1 with 3% dextran T500 and RBCs were allowed to settle for 20-25min. The upper fraction was diluted with 3 volumes of D-PBS and cells were spun down for 10 min at 1500 rpm, RT. Supernatant was aspirated and cells were washed in an equal volume MT-buffer. Finally, cells were resuspended in MT-buffer containing 0.5% DMSO in the original blood volume. 80 uL cells were mixed with 20 uL compound in the presence of 0.5% DMSO, in triplicate, in a V-bottom 96-well tissue culture plate. A dose range of 8 compound concentrations was tested resulting in a 10-point dose response curve including maximum (stimulated) and minimum (unstimulated) response. […] The cells were stimulated for 30 minutes at 37° C., 5% CO2. The plate was spun for 10 min at 1500 rpm at room temperature and 80 uL the supernatant was harvested for histamine content analysis using the histamine ELISA kit supplied by Immunotech. The ELISA was performed according to supplier's instructions.

[11] = tested on: Jurkat cells; assay: Jurkat (T-cell) toxicity, light scatter; assay type: cell-based, human; conditions: read-out: Toxicity Jurkat Light Scat.
Description: Dilute Jurkat cells to 2×10^5 cells/ml in complete RPMI (10% heat-inactivated fetal bovine serum) media and incubate at 37° C., 5% CO2 for 18 hours. Add 65 ul cells at 7.7×10^5 cells/ml to a 96-well V-bottom plate (TC-treated, Costar) containing 65 ul 2× compound (final vehicle concentration is 0.5% DMSO, 1.5% MeOH). Mix, incubate plates for 18-24 hr at 37° C., 5% CO2. Toxicity was assessed by flow cytometric analysis of cellular light scatter

[12] = tested on: B-cell line BJAB; assay: BJAB (B-cell) toxicity, light scatter; assay type: cell-based; conditions: read-out: Toxicity BJAB Light Scat.
Description: The B-cell line BJAB was cultured in log phase in RPMI1640+10% heat-inactivated fetal bovine serum, 1× L-glutamine, 1× penicillin, 1× […] and 1× beta-mercaptoethanol at 37° C., 5% CO2. First, BJABs were harvested, spun and resuspended in culture medium to a concentration of 7.7×10^5 cells/mL. 65 uL cells were mixed with 65 uL compound, in duplicate and in the presence of 0.1% DMSO in a V-bottomed 96-well tissue culture plate. Cells were incubated with compound at various dilutions at 37° C., 5% CO2. Toxicity was assessed by flow cytometric analysis of cellular light scatter.

[13] = tested on: cultured human mast cells (CHMC); assay: CHMC low cell density ionomycin activation: hexosaminidase assay; assay type: cell-based; conditions: hexosaminidase release, read-out: CHMC Ionomycin Hexos. IC50
Description: (§1) Inhibition of degranulation was measured at both low and high cell density by quantifying the release of the granule specific factors tryptase, histamine and hexosaminidase. Inhibition of release and/or synthesis of lipid mediators was assessed by measuring the release of leukotriene LTC4 and inhibition of release and/or synthesis of cytokines was monitored by quantifying TNF-α, IL-6 and IL-13. Tryptase and hexosaminidase were quantified using fluorogenic substrates as described in their respective examples. Histamine, TNFα, IL-6, IL-13 and LTC4 were quantified using the following commercial ELISA kits: histamine (Immunotech #2015, Beckman Coulter), TNFα (Biosource #KHC3011), IL-6 (Biosource #KMC0061), IL-13 (Biosource #KHC0132) and LTC4 (Cayman Chemical #520211). The protocols of the various assays are provided below.

[14] = tested on: bone marrow derived mast cells (BMMC); assay: BMMC high cell density ionomycin activation: hexosaminidase; assay type: cell-based, mouse; conditions: read-out: BMMC Ionomycin Hexos.
Description: Add 50 uL of BMMC cell supernatant (see above) to the hexoseaminidase substrate, place at 37° C. for 30 minutes and read the plate at 5, 10, 15, and 30 minutes on a spectrophotometer.

[15] = tested on: bone marrow derived mast cells (BMMC); assay: BMMC high cell density IgE activation: hexosaminidase; assay type: cell-based, mouse
[16] = tested on: bone marrow derived mast cells (BMMC); assay: BMMC high cell density IgE activation: LTC4; assay type: cell-based, mouse; conditions: High Density section of TABLE 1, BMMC, anti-IgE activation, LTC4; read-out: BMMC anti-IgE LTC4 IC50
Description: (§2) After sensitizing, cells are counted, pelleted (1000 rpm, 5-10 minutes), and resuspended at 1-3×10^6 cells/ml in MT buffer. Add 100 ul of cell suspension to each well and 100 ul of compound dilutions. The final vehicle concentration is 0.5% DMSO. Incubate at 37° C. (5% CO2) for 1 hour. After 1 hour of compound treatment, stimulate cells with 6× stimulus (60 ng/ml DNP-BSA). Mix wells with the cells and allow plates to incubate at 37° C. (5% CO2) for one hour. After 1 hour incubation, pellet cells (10 minutes, 1000 RPM) and collect 200 ul per well of the supernatant, being careful not to disturb pellet, and transfer to a clean tube or 96-well plate. Place the supernatant plate on ice. During the 4-5 hour step (see next) perform the hexosiminidase assay. Resuspend cell pellet in 240 ul WEI-conditioned media containing 0.5% DMSO and corresponding concentration of compound. Incubate BMMC cells for 4-5 hours at 37° C. (5% CO2). After incubation, pellet cells (1000 RPM, 10 minutes) and collect 225 ul per well and place in −80° C. until ready to perform ELISAS. ELISAS are performed on appropriately diluted samples (determined empirically for each donor cell population so that the sample measurement falls within the standard curve) following the supplier's instructions.

[17] = tested on: bone marrow derived mast cells (BMMC); assay: BMMC high cell density IgE activation: histamine; assay type: cell-based, mouse; conditions: High Density section of TABLE 1, BMMC, anti-IgE activation, histamine; read-out: BMMC anti-IgE histamine IC50
Description: as §2

[18] = tested on: bone marrow derived mast cells (BMMC); assay: BMMC high cell density IgE activation: TNFalpha; assay type: cell-based, mouse; conditions: High Density section of TABLE 1, BMMC, anti-IgE activation, TNFalpha; read-out: BMMC anti-IgE TNF-alpha IC50
Method in brief: (§3)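 Mediator release from sensitized BMMC: after 1 h compound exposure at 37 °C (0.5% DMSO), cells challenged with DNP-BSA for 1 h and early supernatant collected. Cells then recultured 4-5 h in conditioned medium with compound; cytokines IL-6 and TNFα quantified by ELISA.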

[19] = tested on: bone marrow derived mast cells (BMMC); assay: BMMC high cell density IgE activation: IL-6; assay type: cell-based, mouse; conditions: High Density section of TABLE 1, BMMC, anti-IgE activation, IL-6; read-out: BMMC anti-IgE IL-6 IC50
Method in brief: as §3

[20] = tested on: cultured human mast cells (CHMC); assay: CHMC low cell density IgE activation: tryptase assay; assay type: cell-based; conditions: Low Density; read-out: CHMC anti-IgE Tryptase
Method in brief: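 Low-density CHMC assay: donor-adjusted 1000-1500 cells/well, MT buffer, 1 hr 37° C preincubation; anti-IgE stimulus 30 min 37° C versus MT-only controls; supernatant tryptase by substrate, 30 min RT.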

[21] = tested on: cultured human mast cells (CHMC); assay: CHMC low cell density IgE activation: hexosaminidase assay; assay type: cell-based; conditions: anti-IgE activation, hexosaminidase release, read-out: CHMC anti-IgE Hexos. IC50
Description: as §1

[22] = High Density, read-out: BMMC anti-IgE hexos
[23] = Low Density, read-out: CHMC Ionomycin Tryptase
[24] = High Density section of TABLE 1, BMMC, anti-IgE activation, hexosaminidase, read-out: BMMC anti-IgE hexos. IC50

Row | SMILES | IC50 [2] [µM] | IC50 [6] [µM] | IC50 [7] [µM] | IC50 [8] [µM] | IC50 [11] [µM] | IC50 [12] [µM] | IC50 [13] [µM] | IC50 [14] [µM] | IC50 [15, 22] [µM] | IC50 [9, 23] [µM] | IC50 [16] [µM] | IC50 [17] [µM] | IC50 [18] [µM] | IC50 [19] [µM] | IC50 [15, 24] [µM] | IC50 [20] [µM] | also measured
1 | O=C(c1cc2cc(Nc3ncc(F)c(Nc4ccc5c(c4)OCCO5)n3)ccc2o1)N1CCNCC1 [Compound R926501] | > 4.33 | > 10 | 1.68 | – | – | – | – | – | – | – | – | – | – | – | – | – | IC50 [1]: > 4.33 µM; IC50 [3]: > 2 µM; IC50 [4]: > 2 µM; IC50 [5]: 0.193 µM
2 | Oc1cccc(Nc2ncc(F)c(Nc3ccc4c(c3)OCCO4)n2)c1 [Compound R926210] | – | > 10 | 4.38 | 0.8 | > 10 | > 10 | > 10 | > 10 | 0.6 | – | – | – | – | – | – | – | IC50 ([9]; Low Density CHMC, ionomycin activation, tryptase release, read-out: CHMC Ionomycin Tryptase IC50): > 10 µM; IC50 [10]: 0.37 µM
3 | CC(C)Oc1ccc(Nc2nc(Nc3cccc(OCCO)c3)ncc2F)cc1 [Compound R935156] | 4.05 | – | 1.84 | – | – | – | – | – | – | > 10 | 0.433 | < 0.22 | 0.22 | < 0.22 | < 0.22 | 0.149 | –
4 | OCCOc1cccc(Nc2ncc(F)c(Nc3ccc4c(c3)OCCO4)n2)c1 [Compound R935154] | > 4.33 | – | 1.65 | – | – | – | – | – | – | > 10 | 0.547 | 0.085 | 0.131 | 0.041 | 0.104 | 0.127 | –
5 | CCOc1ccc(Nc2nc(Nc3cccc(O)c3)ncc2F)cc1 [Compound R926146] | – | – | > 10 | 1.59 | > 10 | > 10 | 6.7 | 5 | 1.35 | – | – | – | – | – | – | – | IC50 [21]: 0.761 µM
6 | Nc1cccc(Nc2ncc(F)c(Nc3ccc4c(c3)OCCO4)n2)c1 [Compound R950207] | > 4.33 | – | 1.08 | – | – | – | – | – | – | > 10 | 0.288 | < 0.22 | < 0.22 | < 0.22 | < 0.22 | 0.164 | –
7 | CCOc1ccc(Nc2nc(Nc3ccc(OC)c(OC)c3)ncc2F)cc1 [Compound R926108] | – | > 10 | 10.4 | 0.76 | > 10 | > 10 | 6.4 | > 10 | 0.9 | – | – | – | – | – | – | – | IC50 [10]: 0.95 µM; IC50 [21]: 0.787 µM
